Test system: IGF-I receptor
Experiment: Equilibrium binding assay, primary cerebellar neuron cultures
Type: cell-based, rat
Protocol: Fresh frozen tissue (˜100 mg) was homogenized in 5 volumes of NP-40 lysis buffer (50 mM Tris-HCl, pH 7.5, 1% NP-40, 150 mM NaCl, 1 mM EDTA, 2 mM EGTA) containing protease inhibitors (1 mM PMSF, 0.1 mM TPCK, 1 μg/ml aprotinin, 1 μg/ml pepstatin A, 0.5 μg/ml leupeptin, 1 mM NaF, 1 mM Na4P2O7). Protein concentrations were determined using the bicinchoninic acid (BCA) assay (Pierce, Rockford, Ill.). Exploratory studies determined the amounts of protein and concentrations of radiolabeled ligand required to achieve 20% specific binding. Insulin receptor binding assays were performed using 100 μg protein. IGF-I binding assays required 25 μg protein per sample, and IGF-II receptor binding assays were optimized using 10 μg protein. Competitive equilibrium binding assays were used to assess growth factor binding in relation to ethanol exposure. For total binding, duplicate individual protein samples were incubated in 100 μl reactions containing binding buffer (100 mM HEPES, pH 8.0, 118 mM NaCl, 1.2 mM MgSO4, 8.8 mM dextrose, 5 mM KCl, 1% bovine serum albumin) and 100 nCi/ml of [^125I] (2000 Ci/mmol; […]) insulin, IGF-I, or IGF-II. To measure non-specific binding, replicate samples were identically prepared but with the addition of 0.1 μM unlabeled (cold) ligand.
All reactions were performed in 1.5 ml Eppendorff tubes, and the incubations were performed at 4° C. for 16 hours with gentle platform agitation. Bound radiolabeled tracer was then precipitated by adding 500 μl of 0.15% bovine gamma globulin (prepared in 100 mM Tris-HCl, pH 8.0) followed by 400 μl 37.5% polyethylene glycol 8000 (PEG-8000; prepared in 100 mM Tris-HCl, pH 8.0) to each tube. […] The samples were counted for 1 minute in an LKB CompuGamma CS Gamma counter. Specific binding was calculated by subtracting fmol of non-specific binding, i.e., amount bound in the presence of cold ligand, from the total fmol bound (absence of unlabeled competitive ligand). The results were analyzed and plotted using the GraphPad Prism 4 software (GraphPad Software, Inc., San Diego, Calif.). […]

CC(C)CCC[C@@H](C)[C@H]1CC[C@H]2[C@@H]3CC=C4C[C@@H](O)CC[C@]4(C)[C@H]3CC[C@]12C [cholesterol]
IGF-I receptor binding (10 mM for 3 hours, control cerebellar neurons): significantly impaired

CCO [ethanol]
IGF-I receptor binding (50 mM ethanol for 96 hours vs control cultures): significantly reduced

Methyl-β-cyclodextrin [MβCD]
IGF-I receptor binding (10 mM for 3 hours, control and ethanol-exposed cultures, relative to vehicle-treated cells): significantly inhibited
